Like-named read-outs stand apart in the source and are kept apart here. Marks after values point to notes of the source that are not given here.
How the values were obtained:
S. mansoni TGR = molecular target: T1, S. mansoni TGR (Schistosoma mansoni, UniProt Q962Y6); assay: S. mansoni TGR enzyme inhibition (DTNB reduction); type: biochemical; conditions: for IC50: 15 min preincubation (enzyme + 100 µM NADPH + compound); for inhibition at 15 µM: compound 15 µM; for inhibition at 30 µM: compound 30 µM; for inhibition at 1 µM: compound 1 µM; for inhibition at 5 µM: compound 5 µM
T1 construct: made in house
T1 sequence (Q962Y6 1-598): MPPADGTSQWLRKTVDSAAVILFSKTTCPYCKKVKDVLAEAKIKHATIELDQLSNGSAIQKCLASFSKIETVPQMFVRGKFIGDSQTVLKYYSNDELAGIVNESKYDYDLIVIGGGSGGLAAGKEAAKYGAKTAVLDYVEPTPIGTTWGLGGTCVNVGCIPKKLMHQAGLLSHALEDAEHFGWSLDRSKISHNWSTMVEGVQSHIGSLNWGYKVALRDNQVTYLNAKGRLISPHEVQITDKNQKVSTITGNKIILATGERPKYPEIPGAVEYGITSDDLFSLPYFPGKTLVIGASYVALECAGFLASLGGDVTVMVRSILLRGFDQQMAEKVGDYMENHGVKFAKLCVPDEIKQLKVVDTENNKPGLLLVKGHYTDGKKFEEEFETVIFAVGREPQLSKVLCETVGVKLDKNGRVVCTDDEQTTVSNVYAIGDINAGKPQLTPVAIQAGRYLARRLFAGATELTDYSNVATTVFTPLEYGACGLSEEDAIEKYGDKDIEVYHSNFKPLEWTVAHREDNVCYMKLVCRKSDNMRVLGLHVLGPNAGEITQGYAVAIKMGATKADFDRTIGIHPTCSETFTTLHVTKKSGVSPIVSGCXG

Human TrxR1 = molecular target: T2, Human TrxR1 (Homo sapiens, UniProt Q16881); assay: Human TrxR1 enzyme inhibition (DTNB reduction); type: biochemical; conditions: for inhibition at 15 µM: compound 15 µM; for inhibition at 30 µM: compound 30 µM
T2 construct: made in house
T2 sequence (Q16881 1-499 isoform Q16881-5): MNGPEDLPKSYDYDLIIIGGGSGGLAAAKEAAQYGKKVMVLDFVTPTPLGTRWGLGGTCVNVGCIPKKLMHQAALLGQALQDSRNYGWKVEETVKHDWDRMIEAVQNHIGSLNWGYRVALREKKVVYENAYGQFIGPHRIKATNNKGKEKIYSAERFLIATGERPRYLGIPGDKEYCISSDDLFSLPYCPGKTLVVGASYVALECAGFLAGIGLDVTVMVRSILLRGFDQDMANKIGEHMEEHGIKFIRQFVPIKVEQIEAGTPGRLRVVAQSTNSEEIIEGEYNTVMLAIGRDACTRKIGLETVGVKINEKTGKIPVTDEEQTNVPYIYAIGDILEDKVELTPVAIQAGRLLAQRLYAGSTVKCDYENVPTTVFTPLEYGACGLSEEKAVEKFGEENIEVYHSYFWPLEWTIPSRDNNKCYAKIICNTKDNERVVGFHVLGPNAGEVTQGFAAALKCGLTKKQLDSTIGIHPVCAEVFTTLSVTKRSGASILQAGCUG
Protocol: Recombinant TGR, human TrxR1, B. malayi (Bm)TrxR and human GR proteins were expressed and purified as described[20],[69],[79]. The codon optimized sequence for P. falciparum (PfTrxR, https://www.ncbi.nlm.nih.gov/protein/CAA60574.1/) with an N-terminal 6-His tag was synthesized and inserted into pET15b (GenScript) and expressed in BL21 (DE3) cells and purified as described for human GR[20]. TGR and TrxR enzyme inhibition assays were performed in triplicate at 25 °C as described[20] in 0.1 M potassium phosphate (pH 7.4), 10 mM EDTA, 100 µM NADPH and 0.01% Tween-20. […] The reaction was started with addition of an equal volume of DTNB (6 mM) and NADPH (100 µM) and the increase in A412 during the first 3 min was recorded. […] The reaction was preincubated for 15 min. Activity was initiated with the addition of 1 mM GSSG and 100 μM NADPH and initial rates of NADPH oxidation were monitored at 340 nm. The reactions were done in triplicate. The IC50 was calculated in GraphPad Prism.

[1] = system: S. mansoni newly transformed schistosomula (NTS); assay: Schistosomicidal activity ex vivo, NTS (Cell Titer Glo); type: cell-based; conditions: for LD50 ex vivo S. mansoni NTS: 24 h exposure, Cell TiterGlo
Protocol: Oncomelania hupensis subsp. hupensis, Chinese strain, infected with S. japonicum, Chinese strain, and Biomphalaria glabrata, strain NMRI, infected with S. mansoni, strain NMRI, were provided by the NIAID Schistosomiasis Resource Center for distribution through BEI Resources, NIAID, NIH. After infections were patent, snails were exposed to bright light for 1 hr to obtain cercariae. Cercariae were mechanically transformed to schistosomula. Briefly, cercariae were placed on ice for 30 min and then centrifuged at 350 × g for 10 mins. The supernatant was decanted and 2 ml of serum-free M199 medium was added to cercarial pellets and vortexed for 1 min until cercarial tails were detached. NTS were purified by layering on 4 °C Percoll gradient suspension containing Eagle’s minimum essential medium, penicillin-streptomycin (10,000 U per ml penicillin/10,000 U per ml streptomycin), and 1 M HEPES in 0.85% NaCl with cercariae suspension and centrifuged at 500 × g for 15 min. Cercarial pellets were resuspended and washed thrice in serum-free M199 medium and collected at 100 × g for 5 min. NTS (240) were transferred to U-bottom 96 well assay plates containing 200 µl of M199 medium supplemented with 5.5 mM D-glucose, penicillin-streptomycin and 5% heat inactivated fetal bovine serum and incubated at 37 °C in a 5% CO2 incubator overnight.
DMSO formulated compounds were diluted with phenol red free M199 medium or RPMI medium for NTS or juvenile and adult worms, respectively, at <1% DMSO final concentrations. NTS, juvenile and adult worms from overnight cultures were tested against compounds in triplicate. Controls were treated with DMSO alone or 5 µM AF as a positive control in appropriate medium. Worm viability was assessed at 24 or 72 h by measuring ATP content of worms using Cell Titer Glo Assay (Promega) as described. Schistosome viabilities in the presence of the compounds were assessed using this formula: % Viability = Averages of Test / Averages of DMSO Control x 100.

Vero cells = assay: Cytotoxicity in mammalian cells (Cell Titer Glo); type: cell-based; conditions: for LD50 ex vivo VERO: African green monkey, 24 h; for EC50: Chlorocebus sabaeus, Vero, estimate from raw data, read-out: EC50 viability of Vero cells
Protocol: Following overnight incubation, formulated DMSO-compound stock solutions were diluted with DMEM at <1% DMSO final concentrations. […] Vero cells treated similarly with different concentrations of PZQ, MZM and AF (Cayman Chemicals) were used as positive controls.

[2] = 6 h preincubation (enzyme + 100 µM NADPH + compound), read-out: S. mansoni TGR inhibition (%) at 66.7 µM
[3] = TGR, 15 minutes pre-incubation, read-out: % inhibition
[4] = TGR, 15 minutes pre-incubation, compound 66.7 µM, read-out: % inhibition
[5] = TGR, 6 hours pre-incubation, read-out: % inhibition
[6] = 15 min preincubation (enzyme + 100 µM NADPH + compound), read-out: Human TrxR1 IC50
[7] = 6 h preincubation, read-out: Human TrxR1 IC50 (µM) or inhibition (%) at 66.7 µM: IC50
[8] = hsTrxR, 15 minutes pre-incubation
[9] = hsTrxR, 15 minutes pre-incubation, compound 66.7 µM, read-out: % inhibition
[10] = Schistosoma mansoni, 72 h, read-out: % viability, S. mansoni NTS

| SMILES | IC50 (S. mansoni TGR) [µM] | inhibition at 66.7 µM (S. mansoni TGR; [2]) [%] | inhibition at 15 µM (S. mansoni TGR; [3]) [%] | inhibition at 30 µM (S. mansoni TGR; [3]) [%] | inhibition at 66.7 µM (S. mansoni TGR; [4]) [%] | inhibition at 15 µM (S. mansoni TGR; [5]) [%] | inhibition at 30 µM (S. mansoni TGR; [5]) [%] | IC50 (Human TrxR1; [6]) [µM] | IC50 (Human TrxR1; [7]) [µM] | inhibition at 15 µM (Human TrxR1; [8]) [%] | inhibition at 30 µM (Human TrxR1; [8]) [%] | inhibition at 66.7 µM (Human TrxR1; [9]) [%] | LD50 ex vivo S. mansoni NTS [1] [µM] | LD50 NTS after 72 h exposure [1] [µM] | viability at 5 µM ([1]; Schistosoma mansoni) [%] | viability at 15 µM ([1]; Schistosoma mansoni) [%] | viability at 30 µM ([1]; Schistosoma mansoni) [%] | viability at 50 µM ([1]; Schistosoma mansoni) [%] | LD50 ex vivo VERO (Vero cells) | EC50 (Vero cells) [µM] | further results |
| --- | --- | --- | --- | --- | --- | --- | --- | --- | --- | --- | --- | --- | --- | --- | --- | --- | --- | --- | --- | --- | --- |
| CCc1ccccc1-c1nc(CN[C@@H]2C[C@@H]3C[C@H]([C@H]2C)C3(C)C)c(C)o1 [Compound 2] | > 66.7 | 28.7 | 4.35 | 8.85 | 12.5 | 12.1 | 14.6 | > 66.7 | 50 ± 13.6 | 2.2 | 4.72 | 11.5 | 0.6 ± 0.21 | 0.18 ± 0.007 | 0.373 | 0.0945 | 0.0764 | 0.0707 | 54.7 ± 6.65 µM | > 50 | inhibition at 66.7 µM (S. mansoni TGR; TGR, 6 hours pre-incubation, compound 66.7 µM, read-out: % inhibition): 28.7%; viability at 1 µM ([1]; Schistosoma mansoni): 47.9%; viability at 0.125 µM [1, 10]: 65%; viability at 0.25 µM [1, 10]: 40.4%; viability at 0.5 µM [1, 10]: 3.04%; viability at 1 µM [1, 10]: 0.411% |
| CC1C(NCc2cn(C3OCC(O)C(O)C3O)c3ccccc23)CC2CC1C2(C)C (stereo not shown) [Compound 9] | 57.5 ± 2.46 | – | 32.6 | 49.3 | 68.2 | – | – | 70.5 ± 11.4 | – | 5.09 | 8.68 | 14.5 | 11.14 ± 1.04 | – | – | – | – | – | >50^a µM | > 200 | inhibition at 1 µM (S. mansoni TGR; TGR, 15 minutes pre-incubation): 3.4%; inhibition at 5 µM (S. mansoni TGR; TGR, 15 minutes pre-incubation): 11.8% |
| C#CCN(Cc1nc(-c2ccccc2)oc1C)[C@@H]1C[C@@H]2C[C@H]([C@H]1C)C2(C)C [Compound 6] | – | – | – | 95.8 | 96.4 | – | – | > 66.7 | – | – | 1.95 | 2.61 | 17.5 ± 3.7 | 7.8 ± 2.36 | 81.1 | 57 | 30.8 | 26.4 | >100^a µM | – | inhibition at 1 µM (S. mansoni TGR; TGR, 15 minutes pre-incubation): 26.3%; inhibition at 5 µM (S. mansoni TGR; TGR, 15 minutes pre-incubation): 74.8%; times more potent against TGR than human TrxR1 (S. mansoni TGR; ratio of IC50s): at least 25 fold; inhibition at 66.7 µM (Human TrxR1; 66.7 µM, 6 h preincubation, read-out: Human TrxR1 IC50 (µM) or inhibition (%) at 66.7 µM: inhibition): 28.9%; viability at 1.25 µM [1, 10]: 86%; viability at 2.5 µM [1, 10]: 73.8%; viability at 5 µM [1, 10]: 55.5%; viability at 10 µM [1, 10]: 45.1% |
| Cc1oc(-c2ccc3c(c2)OCO3)nc1CN[C@@H]1C[C@@H]2C[C@H]([C@H]1C)C2(C)C [Compound 1] | > 66.7 | 42.1 | 5.86 | 10 | – | 7.78 | 21.1 | > 66.7 | 37 ± 3.44 | 6.99 | 11.4 | – | 5.9 ± 0.25 | 2.2 ± 0.19 | 52.7 | 30 | 24.6 | 17.6 | >75.5^a µM | > 200 | viability at 1 µM ([1]; Schistosoma mansoni): 89.9%; viability at 0.25 µM [1, 10]: 92.1%; viability at 1 µM [1, 10]: 71.2%; viability at 3 µM [1, 10]: 48.1%; viability at 6 µM [1, 10]: 23.4% |
